Measured values taken from ChEMBL document CHEMBL1151659, “Effects of Sesquiterpene Lactones on Development of Aedes atropalpus and Relation to Partition Coefficient” (J Nat Prod, 1985).
The source made the active and inactive calls. The calls are words filed in the database; no cut-off is given here.

Columns and labels:
[1] = system: Aedes atropalpus; assay: Toxicity in second-instar Aedes atropalpus in pupal stage assessed as growth; format: functional, organism-based
[2] = system: Aedes atropalpus; assay: Toxicity in second-instar Aedes atropalpus in adult stage assessed as growth; format: functional, organism-based
[3] = Partition coefficient, log P of the compound; format: physicochemical; details: octanol/water
[4] = system: Aedes atropalpus; assay: Toxicity in second-instar Aedes atropalpus larvae at 10 ppm after 24 hrs; format: functional, organism-based
[5] = system: Aedes atropalpus; assay: Toxicity in second-instar Aedes atropalpus larvae at 100 ppm after 24 hrs; format: functional, organism-based

| logP [3] | Compound | Activity [1] | Activity [2] | Activity [4] | Activity [5] |
| --- | --- | --- | --- | --- | --- |
| 1.62 | C=C1C(=O)O[C@@H]2[C@H]1CC[C@H](C)[C@@H]1[C@H](O)CC(=O)[C@]12C [BIPINNATIN] | Active | Active | – | – |
| 1.42 | C=C1C(=O)O[C@@H]2[C@H]1CC[C@H](C)[C@]1(O)CCC(=O)[C@@]21C [CORONOPILIN] | Active | Active | – | – |
| 3.38 | C=C1C(=O)O[C@@H]2C[C@@]3(C)CCC[C@H](C)C3=C[C@H]12 [HELENINE] | Active | Active | Active | Active |
| 1.7 | C[C@H]1C(=O)O[C@@H]2[C@H]1CC[C@H](C)[C@]1(O)C=CC(=O)[C@@]21C [HYMENOLIN] | Active | Active | – | – |
| 3.42 | C=C1C(=O)O[C@@H]2C[C@@]3(C)CCCC(=C)[C@@H]3C[C@H]12 [ISOALANTOLACTONE] | Active | Active | Active | Active |

| Compound | logP [3] | Activity [1] | Activity [2] | Activity [4] | Activity [5] |
| --- | --- | --- | --- | --- | --- |
| C=C1C(=O)O[C@@H]2[C@H]1CC[C@H](C)[C@]1(O)C=CC(=O)[C@@]21C [PARTHENIN] | 1.37 | Active | Active | Active | Active |
